Measured values: patent US6426369B1, “Oxethazaine as antimicrobial agent” (Eisai Co., Ltd., priority 1997, dated 2002)
Where two headings read alike, the source gives them in different places.

Experiments:
H. pylori [1] = assay: Antimicrobial activity test 6: oxethazaine in combination with an antibiotic (AMPC, CAM, RXM), checker board method; type: cell-based, Helicobacter pylori; parameters: key to growth of H. pylori: “−” indicates the inhibited growth of H. pylori (presence of antimicrobial activity); “+” indicates the growth of H. pylori (absence of antimicrobial activity); conditions: for combined effect of oxethazaine and CAM / combined effect of oxethazaine and RXM: checker board; for effect of combined use: oxethazaine in combination with AMPC
Text: The effect of combined use with amoxicillin (AMPC), clarithromycin (CAM) or roxithromycin (RXM) was examined in the same manner as in antimicrobial activity test 1, using the checker board method.

H. pylori [2] = assay: Antimicrobial activity test 3: oxethazaine in combination with compound (II), checker board method; type: cell-based; conditions: Helicobacter pylori
Text: In each Table, the concentration of oxethazaine is shown vertically, and the concentration of compound (II) is shown horizontally. In each Table, “−” indicates the inhibited growth of H. pylori (presence of antimicrobial activity), and “+” indicates the growth of H. pylori (absence of antimicrobial activity). […] It is assumed to be present when the MIC of either oxethazaine or PPI is reduced by ½ (when anti-H. pylori activity is not recognized when the concentrations of both oxethazaine and PPI are reduced to ¼, but anti-H. pylori activity is recognized when the concentration of one compound is reduced to ¼ and simultaneously the concentration of the other compound is reduced to ½.).

[3] = Acute toxicity test, single oral dose, rats; type: in vivo, Slc:SD rats; conditions: for LD50: Slc:SD, rat, in vivo, po, single oral dose, read-out: LD50 (Oral administration)
Experimental: A toxicity test was conducted by orally administering a single dose into 7- to 8-weeks old Slc:SD rats and Slc:ICR mice, each group consisting of 5 females and 5 males (medium; physiological saline).

## CN(C(=O)CN(CCO)CC(=O)N(C)C(C)(C)Cc1ccccc1)C(C)(C)Cc1ccccc1 [Oxethazaine, 2,2′-[(2-hydroxyethyl)amino]bis[N-(1,1-dimethyl-2-phenylethyl)-N-methylacetamide]]
H. pylori [1]; strain 90-397, CAM 12.5 μg/ml, oxethazaine μg/ml: 100, 50, 25, 12.5, 6.25, 3.13, 0
  growth of H. pylori: −
H. pylori [1]; strain 90-397, CAM 25 μg/ml, oxethazaine μg/ml: 100, 50, 25, 12.5, 6.25, 3.13, 0
  growth of H. pylori: −
H. pylori [1]; strain 90-397, CAM 50 μg/ml, oxethazaine μg/ml: 100, 50, 25, 12.5, 6.25, 3.13, 0
  growth of H. pylori: −
H. pylori [1]; strain 90-397, CAM 100 μg/ml, oxethazaine μg/ml: 100, 50, 25, 12.5, 6.25, 3.13, 0
  growth of H. pylori: −
H. pylori [1]; strain 90-397
  combined effect of oxethazaine and CAM: 90-397 (synergism)
H. pylori [1]; strain 90-407, CAM 0 μg/ml (oxethazaine alone), oxethazaine μg/ml by row r14-r19: 100, 50, 25, 12.5, 6.25, 3.13
  growth of H. pylori: −
H. pylori [1]; strain 90-407, CAM 0.006 μg/ml, oxethazaine μg/ml: 100, 50, 25, 12.5, 6.25, 3.13, 0
  growth of H. pylori: −
H. pylori [1]; strain 90-407, CAM 0.012 μg/ml, oxethazaine μg/ml: 100, 50, 25, 12.5, 6.25, 3.13, 0
  growth of H. pylori: −
H. pylori [1]; strain 90-407, CAM 0.024 μg/ml, oxethazaine μg/ml: 100, 50, 25, 12.5, 6.25, 3.13, 0
  growth of H. pylori: −
H. pylori [1]; strain 90-407, CAM 0.05 μg/ml, oxethazaine μg/ml: 100, 50, 25, 12.5, 6.25, 3.13, 0
  growth of H. pylori: −
H. pylori [1]; strain 90-407, CAM 0.1 μg/ml, oxethazaine μg/ml: 100, 50, 25, 12.5, 6.25, 3.13, 0
  growth of H. pylori: −
H. pylori [1]; strain 90-407, CAM 0.2 μg/ml, oxethazaine μg/ml: 100, 50, 25, 12.5, 6.25, 3.13, 0
  growth of H. pylori: −
H. pylori [1]; strain 90-407, CAM 6.25 μg/ml, oxethazaine μg/ml: 100, 50, 25, 12.5, 6.25, 3.13, 0
  growth of H. pylori: −
H. pylori [1]; strain 90-407, CAM 12.5 μg/ml, oxethazaine μg/ml: 100, 50, 25, 12.5, 6.25, 3.13, 0
  growth of H. pylori: −
H. pylori [1]; strain 90-407, CAM 25 μg/ml, oxethazaine μg/ml: 100, 50, 25, 12.5, 6.25, 3.13, 0
  growth of H. pylori: −
H. pylori [1]; strain 90-407, CAM 50 μg/ml, oxethazaine μg/ml: 100, 50, 25, 12.5, 6.25, 3.13, 0
  growth of H. pylori: −
H. pylori [1]; strain 90-407, CAM 100 μg/ml, oxethazaine μg/ml: 100, 50, 25, 12.5, 6.25, 3.13, 0
  growth of H. pylori: −
H. pylori [1]; strain 90-407
  combined effect of oxethazaine and CAM: 90-407 (additive effect)
H. pylori [1]; strain 90-407, oxethazaine 3.13 μg/ml, AMPC 0
  growth of H. pylori: +
H. pylori [1]; strain 90-407, oxethazaine 6.25 μg/ml, AMPC 0
  growth of H. pylori: +
H. pylori [1]; strain 90-407, oxethazaine 12.5 μg/ml, AMPC 0
  growth of H. pylori: +
H. pylori [1]; strain 90-407, oxethazaine 25 μg/ml, AMPC 0
  growth of H. pylori: −
H. pylori [1]; strain 90-407, oxethazaine 50 μg/ml, AMPC 0
  growth of H. pylori: −
H. pylori [1]; strain 90-407, oxethazaine 100 μg/ml, AMPC 0
  growth of H. pylori: −
H. pylori [1]; strain 90-414, oxethazaine 3.13 μg/ml, AMPC 0
  growth of H. pylori: +
H. pylori [1]; strain 90-414, oxethazaine 6.25 μg/ml, AMPC 0
  growth of H. pylori: +
H. pylori [1]; strain 90-414, oxethazaine 12.5 μg/ml, AMPC 0
  growth of H. pylori: +
H. pylori [1]; strain 90-414, oxethazaine 25 μg/ml, AMPC 0
  growth of H. pylori: −
H. pylori [1]; strain 90-414, oxethazaine 50 μg/ml, AMPC 0
  growth of H. pylori: −
H. pylori [1]; strain 90-414, oxethazaine 100 μg/ml, AMPC 0
  growth of H. pylori: −
H. pylori [1]; strain 90-428
  combined effect of oxethazaine and CAM: 90-428 (synergism)
H. pylori [1]; strain EH 12
  combined effect of oxethazaine and RXM: EH 12 (additive effect)
H. pylori [1]; strain EH 13
  combined effect of oxethazaine and RXM: EH 13 (additive effect)
H. pylori [1]; strain NCTC11637
  combined effect of oxethazaine and RXM: NCTC11637 (additive effect)
H. pylori [1]; strain NCTC11637, oxethazaine 3.13 μg/ml, CAM 0
  growth of H. pylori: +
H. pylori [1]; strain NCTC11637, oxethazaine 6.25 μg/ml, CAM 0
  growth of H. pylori: +
H. pylori [1]; strain NCTC11637, oxethazaine 12.5 μg/ml, CAM 0
  growth of H. pylori: −
H. pylori [1]; strain NCTC11637, oxethazaine 25 μg/ml, CAM 0
  growth of H. pylori: −
H. pylori [1]; strain NCTC11637, oxethazaine 50 μg/ml, CAM 0
  growth of H. pylori: −
H. pylori [1]; strain NCTC11637, oxethazaine 100 μg/ml, CAM 0
  growth of H. pylori: −
H. pylori [1]; strain NCTC11639
  combined effect of oxethazaine and RXM: NCTC11639 (additive effect)
H. pylori [1]; strain NCTC11639, oxethazaine 3.13 μg/ml, CAM 0
  growth of H. pylori: +
H. pylori [1]; strain NCTC11639, oxethazaine 6.25 μg/ml, CAM 0
  growth of H. pylori: +
H. pylori [1]; strain NCTC11639, oxethazaine 12.5 μg/ml, CAM 0
  growth of H. pylori: +
H. pylori [1]; strain NCTC11639, oxethazaine 25 μg/ml, CAM 0
  growth of H. pylori: −
H. pylori [1]; strain NCTC11639, oxethazaine 50 μg/ml, CAM 0
  growth of H. pylori: −
H. pylori [1]; strain NCTC11639, oxethazaine 100 μg/ml, CAM 0
  growth of H. pylori: −
H. pylori [1]; the 34th table, strain NCTC11637
  effect of combined use: NCTC11637 (additive effect)
H. pylori [1]; the 34th table, strain NCTC11639
  effect of combined use: NCTC11639 (additive effect)
H. pylori [1]; the 35th table, strain NCTC11637
  effect of combined use: NCTC11637 (additive effect)
H. pylori [1]; the 35th table, strain NCTC11639
  effect of combined use: NCTC11639 (additive effect)
H. pylori [1]; the 36th table, strain EH 13
  effect of combined use: EH 13 (additive effect)
H. pylori [1]; the 36th table, strain EH 16
  effect of combined use: EH 16 (additive effect)
H. pylori [1]; the 37th table, strain EH 13
  effect of combined use: EH 13 (additive effect)
H. pylori [1]; the 37th table, strain EH 16
  effect of combined use: EH 16 (additive effect)
H. pylori [2]; NCTC11637, NCTC 11637
  MIC: 25 µg/mL
H. pylori [2]; NCTC11639, NCTC 11639
  MIC: 50 µg/mL
[3]; female, Rat ♀
  LD50: 1070 mg/kg
[3]; male, Rat ♂
  LD50: ≥ 1000 mg/kg
[3]; oral, rats and mice, clinical doses 15 to 40 mg/day
  LD50 values relative to clinical doses: about 5000 times
